Two molecules from ChEMBL document CHEMBL2021773, “Isolation, structure elucidation, and antibacterial activity of methiosetin, a tetramic acid from a tropical sooty mold (Capnodium sp.)” (2012) can be followed below.

Experiment [1] has as its system Staphylococcus aureus. The experiment can be described thus: Antibacterial activity against Staphylococcus aureus EP167 by two fold serial broth dilution method. Format: functional. On the technique in general: Dilution methods test growth across graded concentrations, often in twofold steps.
The next experiment has as its system Haemophilus influenzae. The experiment can be described thus: Antibacterial activity against Haemophilus influenzae by two fold serial broth dilution method. It counts as functional.
Experiment [2] deals with Staphylococcus aureus. The experiment can be described thus: Potency ratio, ratio of methiosetin MIC to compound MIC for Staphylococcus aureus EP167 by two fold serial broth dilution method. It counts as functional.
Another experiment has as its system Enterococcus faecalis. The experiment can be described thus: Antibacterial activity against Enterococcus faecalis at 64 ug/mL by two fold serial broth dilution method. It counts as functional, organism-based.
Another experiment concerns Streptococcus pneumoniae. The experiment can be described thus: Antibacterial activity against Streptococcus pneumoniae at 64 ug/mL by two fold serial broth dilution method. Format: functional, organism-based.
Another experiment deals with Escherichia coli. The experiment can be described thus: Antibacterial activity against Escherichia coli at 64 ug/mL by two fold serial broth dilution method. Format: functional, organism-based.
Experiment [3] concerns Staphylococcus aureus. The experiment can be described thus: Antibacterial activity against Staphylococcus aureus Smith at 64 ug/mL by two fold serial broth dilution method. Format: functional, organism-based.

Values after ≈ are worked out from the molar mass of the structure shown. Active and inactive are the calls of the source. The calls are words filed in the database; no cut-off is given here.

As for `O=C1C=C[C@H](O)[C@@H]2[C@@H]1C[C@@]13SS[C@]4(C[C@@H]5C(=O)C=C[C@H](O)[C@H]5N4C1=O)C(=O)N23` [EPICORAZINE A], the MIC against Staphylococcus aureus [1] was found to be 32 µg/mL (≈ 76.1 µM); against Haemophilus influenzae it was 0.5 µg/mL (≈ 1.19 µM). Further, in the experiment on Staphylococcus aureus [2], the Ratio was found to be 8.
In the case of `CC(O)C1C(O)=C(C(=O)[C@H]2[C@@H]3CCCC[C@H]3C=C[C@H]2C)C(=O)N1C` (some centres undefined) [METHIOSETIN], the values for the MIC in the experiment on Staphylococcus aureus [1] and in the experiment with Haemophilus influenzae were 256 µg/mL (≈ 768 µM) and 32 µg/mL (≈ 96 µM), respectively. Further, the inhibition entry in the experiment on Enterococcus faecalis, with Streptococcus pneumoniae, with Escherichia coli and in the experiment with Staphylococcus aureus [3] was “inactive” throughout.
